In patent US5972351A, “Plasmodium falciparum MHC class I-restricted CTL epitopes derived from pre-erythrocytic stage antigens” (Isis Innovation Limited, priority 1992, dated 1999):

Tests used:
[1] = test system: B53 matched target cells; test: CTL assay with HIV-2 gag restimulated CTL; type: cell-based, human; conditions: CTL from one HLA-B53 positive HIV-2 infected Gambian
[2] = target: T1, HLA-B53 (Homo sapiens, UniProt P01889, A329T/A93T/A95T/C349S/D201E/D98Y/E176V/E187L/E204Q/E69T/G107R/I218V/K202T/L105A/L119I/N104I/Q94N/R106L/R155S/R180L/S101N/S121R/S35A/S48A/T118I/V127L/V306I/V36M/Y140S/Y91F); test: HLA assembly assay (peptide binding to HLA-B53); conditions: lysates of T2-B53 cells; all peptides initially tested at 4 μM
T1 construct: by transfection with a genomic clone of HLA-B53 using hygromycin selection; expressed in transfected cells; host or cells: T2-B53 (T2 cells transfected with a genomic clone of HLA-B53); lysates of 35S-methionine-labelled cells
Protocol: Briefly, the mutant cell line T2-B53 was derived from T2 cells of HLA type, HLA-A2, -B51, by transfection with a genomic clone of HLA-B53 using hygromycin selection. […] Peptide concentrations were determined with a Micro BCA colourimetric assay (Pierce). Peptides were added to lysates of ^35 S-methionine-labelled cells and incubated overnight at 4° C.^36. Stable assembled class I molecules were then precipitated with monoclonal antibodies W6/32^34 (reactive with all assembled class I molecules) or MHM5^41 (reactive with assembled HLA-B but not HLA-A molecules).

ALSEGCTPYDINQMLNNCVGD [P1]
recognition of peptide-pulsed targets by HIV 2-gag restimulated CTL [1]: recognised | binding to HLA-B53 in the HLA assembly assay [2]: positive result
